Test results as given in PubChem BioAssay (NCI).
Several values for one entry are separate records, joined by “and”; a condition that tells them apart may be missing. Identical values can stand only once.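 Following 48 hours of exposure in 96-well plates, responses at five concentrations were used to interpolate endpoints linearly. GI50 marks 50% less growth. TGI: total growth inhibition.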

The molecules below were run on MDA-MB-468 breast (assay: NCI tumour cell line growth inhibition, 48 h).

Question: What does the source list for `Nc1ncnc2occ(-c3ccc(NC(=O)Nc4cccc(C(F)(F)F)c4)cc3)c12`?
Answer: GI50: 3620 nM; TGI: 11.8 µM

Question: Which GI50 does the source give for `O=NN(CC(=O)NNc1ccccc1)CC(=O)NNc1ccccc1` here?
Answer: > 78300 nM

Question: What about the TGI of the same molecule?
Answer: > 100 µM

Question: With `O=C1c2c[n+](Cc3ccccc3)ccc2-c2nc3ccccc3c3ccnc1c23` as the molecule, how does the GI50 read?
Answer: 389 nM

Question: What about the TGI of the same molecule?
Answer: 1.02 µM

Question: How did the GI50 turn out when `O=C(NCCc1nccs1)c1cnc2c(S)cccc2c1` was run?
Answer: 4130 nM

Question: What about the TGI of the same molecule?
Answer: 39 µM

Question: With `COc1cccc(C2=C(c3cn(C)c4c(C)cccc34)C(=O)NC2=O)c1` as the molecule, how does the GI50 read?
Answer: 20600 nM

Question: And the TGI?
Answer: > 25 µM

Question: Which results are given for `COc1cc(/C=C/C(=O)c2cccc(-n3cc(-c4ccccc4)[nH]c3=O)c2)ccc1O`?
Answer: GI50: 3430 nM; TGI: 22.2 µM

Question: With `O=C1/C(=C/c2ccc([N+](=O)[O-])s2)Oc2ccc(Br)cc21` as the molecule, how does the GI50 read?
Answer: 263 nM

Question: And the TGI?
Answer: 0.781 µM

Question: For `C=CC(=O)N1CCN(c2nc(OC[C@@H]3CCCN3C)nc3c(F)c(-c4nc(N)cc(C)c4C(F)(F)F)c(Cl)cc23)[C@@H](C)C1`, which GI50 is on record?
Answer: 1300 nM

Question: What about the TGI of the same molecule?
Answer: 2.7 µM

Question: How did the GI50 turn out when `O=C(Nc1ccc(Br)cc1)c1cc(Br)ccc1O` was run?
Answer: 328 nM and 722 nM

Question: What about the TGI of the same molecule?
Answer: 1.68 µM and 3.57 µM

Question: Which results are given for `COc1ccc(/C(=N/O)c2cc(F)c(F)c(OC)c2F)cc1O`?
Answer: GI50: 552 nM; TGI: > 100 µM

Question: For `C=CCn1c(C)nc2cc(Nc3nc(N4CCCC4)nc4nc[nH]c34)ccc21`, which GI50 is on record?
Answer: > 100000 nM

Question: And the TGI?
Answer: > 100 µM

Question: `Cc1cc(N)c2cc(NC(=O)/C=C\c3ccccc3Cl)ccc2n1` was tested. Which GI50 did it give?
Answer: 398 nM

Question: And the TGI?
Answer: 1.48 µM

Question: For `Nc1ncnc2c1ncn2C1OC(F)(COS(N)(=O)=O)C(O)C1O` (centres undefined), which GI50 is on record?
Answer: > 100000 nM

Question: What about the TGI of the same molecule?
Answer: > 100 µM

Question: What does the source list for `CC1=C(C(=O)Nc2cc(F)c(F)cc2F)C(c2ccc(N(C)C)cc2)C(C(=O)Nc2cc(F)c(F)cc2F)=C(C)N1`?
Answer: GI50: 30100 nM; TGI: > 100 µM

Question: With `COc1cc2c(cc1OCCCN1CCN(CCCOc3cc4c(cc3OC)C(=O)N3C[C@H](F)C[C@H]3C=N4)CC1)N=C[C@@H]1C[C@@H](F)CN1C2=O` as the molecule, how does the GI50 read?
Answer: < 10 nM

Question: What about the TGI of the same molecule?
Answer: 0.0397 µM

Question: With `Nc1ccccc1SC(CC(=O)c1ccccc1)c1c(Cl)cccc1Cl` (centres undefined) as the molecule, how does the GI50 read?
Answer: 6300 nM

Question: And the TGI?
Answer: 27.9 µM

Question: With `O=C1C=CC(=O)N1c1ccc2ccccc2c1` as the molecule, how does the GI50 read?
Answer: 3560 nM

Question: What about the TGI of the same molecule?
Answer: 14.4 µM

Question: With `O=[N+]([O-])c1cc2c(ccc3ccccc32)o1` as the molecule, how does the GI50 read?
Answer: 169 nM

Question: What about the TGI of the same molecule?
Answer: 0.446 µM

Question: For `COc1cccc(/C=C2\COc3ccc(O)c(O)c3C2=O)c1OC`, which GI50 is on record?
Answer: 1670 nM

Question: And the TGI?
Answer: 3.91 µM

Question: With `CCc1n(Cc2ccc3ccccc3c2)cc[n+]1Cc1ccc2ccccc2c1` as the molecule, how does the GI50 read?
Answer: 182 nM

Question: What about the TGI of the same molecule?
Answer: 0.859 µM

Question: What does the source list for `Cc1nc2sc(C(=O)Nc3cccc4c3OCCO4)c(N)c2cc1C(C)O` (centres undefined)?
Answer: GI50: 3640 nM; TGI: > 100 µM

Question: `COc1ccc(C(=O)c2no[n+]([O-])c2C(=O)c2ccc(OC)cc2)cc1` was tested. Which GI50 did it give?
Answer: 1370 nM

Question: What about the TGI of the same molecule?
Answer: 2.78 µM

Question: How did the GI50 turn out when `NC(=O)c1c(NC(=O)c2ccc(C(F)(F)F)cc2Cl)sc2c1CCC(=O)C2` was run?
Answer: 277 nM

Question: What about the TGI of the same molecule?
Answer: 1.04 µM

Question: `Cc1nc2ccccc2c(/C=C/c2ccc(C(F)(F)F)cc2)c1C(=O)/C=C/c1ccccc1` was tested. Which GI50 did it give?
Answer: 1780 nM

Question: What about the TGI of the same molecule?
Answer: 3.7 µM

Question: `Cc1nc2ccccc2c(/C=C/c2ccc(F)cc2)c1C(=O)/C=C/c1ccccc1` was tested. Which GI50 did it give?
Answer: 1860 nM

Question: And the TGI?
Answer: 4.26 µM

Question: With `O=C(Nc1cccc2[nH]c(C(F)(F)F)nc12)c1ccc(Br)cc1F` as the molecule, how does the GI50 read?
Answer: 2400 nM

Question: What about the TGI of the same molecule?
Answer: 7.05 µM

Question: With `CC(=O)OC1C(C)OC(Oc2c(-c3ccc(O)cc3)oc3cc(O)cc(O)c3c2=O)C(O)C1OC(C)=O` (centres undefined) as the molecule, how does the GI50 read?
Answer: 17800 nM

Question: And the TGI?
Answer: 42.8 µM

Question: Which GI50 does the source give for `COC(=O)c1ccc(C)cc1C1CN=NC12Cc1c(C)cccc1C2=O` (centres undefined) here?
Answer: 30700 nM

Question: And the TGI?
Answer: > 100 µM

Question: Which GI50 does the source give for `CCCCCCCCCCCCNCCCc1ccccc1` here?
Answer: 1540 nM

Question: And the TGI?
Answer: 3.17 µM

Question: Which results are given for `O=C(/C=C/c1cccc(Cl)c1)c1ccccc1`?
Answer: GI50: 13100 nM; TGI: 26.9 µM

Question: Which GI50 does the source give for `CC(C)(C)c1ccc(OCCCCCCCN2CCNCC2)cc1` here?
Answer: 1840 nM

Question: And the TGI?
Answer: 3.58 µM

Question: For `CCn1cnc(C[C@H](NC(=O)[C@@H](NC(=O)Nc2cc(C(F)(F)F)cc(C(F)(F)F)c2)C(C)(C)C)C(=O)OC)c1`, which GI50 is on record?
Answer: 5180 nM

Question: What about the TGI of the same molecule?
Answer: > 10 µM
